# Results: PubChem BioAssay (NCI)
#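 A five-concentration, 48-hour dose response in 96-well plates underlies each endpoint, interpolated linearly between surrounding concentrations. GI50 = concentration required for 50% inhibition of growth. Definition used: TGI = concentration required for complete inhibition of growth.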
# Experiments:
# Assay in all cases: DTP human tumour cell line panel, 48 h
# 786-0 renal = system: 786-0 renal
# A498 renal = system: A498 renal
# A549 NSCLC = system: A549 NSCLC
# ACHN renal = system: ACHN renal
# BT-549 breast = system: BT-549 breast
# CCRF-CEM leukemia = system: CCRF-CEM leukemia
# COLO 205 colon = system: COLO 205 colon
# DU-145 prostate = system: DU-145 prostate
# EKVX NSCLC = system: EKVX NSCLC
# HCC-2998 colon = system: HCC-2998 colon
# HCT-116 colon = system: HCT-116 colon
# HCT-15 colon = system: HCT-15 colon
# HL-60(TB) leukemia = system: HL-60(TB) leukemia
# HOP-62 NSCLC = system: HOP-62 NSCLC
# HOP-92 NSCLC = system: HOP-92 NSCLC
# HS 578T breast = system: HS 578T breast
# HT29 colon = system: HT29 colon
# IGROV1 ovarian = system: IGROV1 ovarian
# K-562 leukemia = system: K-562 leukemia
# KM12 colon = system: KM12 colon
# LOX IMVI melanoma = system: LOX IMVI melanoma
# M14 melanoma = system: M14 melanoma
# MALME-3M melanoma = system: MALME-3M melanoma
# MCF7 breast = system: MCF7 breast
# MDA-MB-231 breast = system: MDA-MB-231 breast
# MDA-MB-435 = system: MDA-MB-435
# MOLT-4 leukemia = system: MOLT-4 leukemia
# NCI-H226 lung = system: NCI-H226 lung
# NCI-H23 lung = system: NCI-H23 lung
# NCI-H460 lung = system: NCI-H460 lung
# NCI-H522 lung = system: NCI-H522 lung
# NCI/ADR-RES ovarian = system: NCI/ADR-RES ovarian
# OVCAR-3 ovarian = system: OVCAR-3 ovarian
# OVCAR-4 ovarian = system: OVCAR-4 ovarian
# OVCAR-5 ovarian = system: OVCAR-5 ovarian
# OVCAR-8 ovarian = system: OVCAR-8 ovarian
# PC-3 prostate = system: PC-3 prostate
# RPMI-8226 leukemia = system: RPMI-8226 leukemia
# RXF 393 renal = system: RXF 393 renal
# SF-268 CNS = system: SF-268 CNS
# SF-295 CNS = system: SF-295 CNS
# SF-539 CNS = system: SF-539 CNS
# SK-MEL-2 melanoma = system: SK-MEL-2 melanoma
# SK-MEL-28 melanoma = system: SK-MEL-28 melanoma
# SK-MEL-5 melanoma = system: SK-MEL-5 melanoma
# SK-OV-3 ovarian = system: SK-OV-3 ovarian
# SN12C renal = system: SN12C renal
# SNB-19 CNS = system: SNB-19 CNS
# SNB-75 CNS = system: SNB-75 CNS
# SR leukemia = system: SR leukemia
# SW-620 colon = system: SW-620 colon
# T-47D breast = system: T-47D breast
# TK-10 renal = system: TK-10 renal
# U251 CNS = system: U251 CNS
# UACC-257 melanoma = system: UACC-257 melanoma
# UACC-62 melanoma = system: UACC-62 melanoma
# UO-31 renal = system: UO-31 renal
smiles,measurement,setting,value
CCN1CCC(Oc2c(C#N)ncc3[nH]c4ncccc4c23)CC1,GI50,786-0 renal,1.71 µM
same,TGI,786-0 renal,> 50 µM
same,GI50,A498 renal,0.296 µM
same,TGI,A498 renal,10.5 µM
same,GI50,A549 NSCLC,14.1 µM
same,TGI,A549 NSCLC,> 50 µM
same,GI50,ACHN renal,0.466 µM
same,TGI,ACHN renal,> 50 µM
same,GI50,BT-549 breast,1.96 µM
same,TGI,BT-549 breast,21 µM
same,GI50,CCRF-CEM leukemia,1.84 µM
same,TGI,CCRF-CEM leukemia,> 50 µM
same,GI50,COLO 205 colon,5.72 µM
same,TGI,COLO 205 colon,19.5 µM
same,GI50,DU-145 prostate,10.9 µM
same,TGI,DU-145 prostate,> 50 µM
same,GI50,EKVX NSCLC,14.5 µM
same,TGI,EKVX NSCLC,> 50 µM
same,GI50,HCC-2998 colon,20.3 µM
same,TGI,HCC-2998 colon,> 50 µM
same,GI50,HCT-116 colon,7.2 µM
same,TGI,HCT-116 colon,> 50 µM
same,GI50,HCT-15 colon,9.35 µM
same,TGI,HCT-15 colon,> 50 µM
same,GI50,HL-60(TB) leukemia,2.9 µM
same,TGI,HL-60(TB) leukemia,17.5 µM
same,GI50,HOP-62 NSCLC,13.2 µM
same,TGI,HOP-62 NSCLC,> 50 µM
same,GI50,HOP-92 NSCLC,> 50 µM
same,TGI,HOP-92 NSCLC,> 50 µM
same,GI50,HS 578T breast,13.1 µM
same,TGI,HS 578T breast,> 50 µM
same,GI50,HT29 colon,10.2 µM
same,TGI,HT29 colon,> 50 µM
same,GI50,IGROV1 ovarian,15.6 µM
same,TGI,IGROV1 ovarian,> 50 µM
same,GI50,K-562 leukemia,1.75 µM
same,TGI,K-562 leukemia,> 50 µM
same,GI50,KM12 colon,2.83 µM
same,TGI,KM12 colon,> 50 µM
same,GI50,LOX IMVI melanoma,5.72 µM
same,TGI,LOX IMVI melanoma,> 50 µM
same,GI50,M14 melanoma,0.357 µM
same,TGI,M14 melanoma,> 50 µM
same,GI50,MALME-3M melanoma,22.9 µM
same,TGI,MALME-3M melanoma,> 50 µM
same,GI50,MCF7 breast,0.403 µM
same,TGI,MCF7 breast,> 50 µM
same,GI50,MDA-MB-231 breast,21.5 µM
same,TGI,MDA-MB-231 breast,> 50 µM
same,GI50,MDA-MB-435,1.88 µM
same,TGI,MDA-MB-435,> 50 µM
same,GI50,MOLT-4 leukemia,1.67 µM
same,TGI,MOLT-4 leukemia,21.2 µM
same,GI50,NCI-H226 lung,16.3 µM
same,TGI,NCI-H226 lung,> 50 µM
same,GI50,NCI-H23 lung,3.25 µM
same,TGI,NCI-H23 lung,> 50 µM
same,GI50,NCI-H460 lung,7.33 µM
same,TGI,NCI-H460 lung,> 50 µM
same,GI50,NCI-H522 lung,15 µM
same,TGI,NCI-H522 lung,> 50 µM
same,GI50,NCI/ADR-RES ovarian,2.78 µM
same,TGI,NCI/ADR-RES ovarian,> 50 µM
same,GI50,OVCAR-3 ovarian,2.55 µM
same,TGI,OVCAR-3 ovarian,> 50 µM
same,GI50,OVCAR-4 ovarian,7.88 µM
same,TGI,OVCAR-4 ovarian,> 50 µM
same,GI50,OVCAR-5 ovarian,19.3 µM
same,TGI,OVCAR-5 ovarian,> 50 µM
same,GI50,OVCAR-8 ovarian,4.77 µM
same,TGI,OVCAR-8 ovarian,> 50 µM
same,GI50,PC-3 prostate,21 µM
same,TGI,PC-3 prostate,> 50 µM
same,GI50,RPMI-8226 leukemia,11 µM
same,TGI,RPMI-8226 leukemia,> 50 µM
same,GI50,RXF 393 renal,0.559 µM
same,TGI,RXF 393 renal,4.16 µM
same,GI50,SF-268 CNS,16.2 µM
same,TGI,SF-268 CNS,> 50 µM
same,GI50,SF-295 CNS,2.04 µM
same,TGI,SF-295 CNS,> 50 µM
same,GI50,SF-539 CNS,1.34 µM
same,TGI,SF-539 CNS,26.2 µM
same,GI50,SK-MEL-2 melanoma,2.48 µM
same,TGI,SK-MEL-2 melanoma,26.9 µM
same,GI50,SK-MEL-28 melanoma,16.2 µM
same,TGI,SK-MEL-28 melanoma,> 50 µM
same,GI50,SK-MEL-5 melanoma,7.12 µM
same,TGI,SK-MEL-5 melanoma,> 50 µM
same,GI50,SK-OV-3 ovarian,3.99 µM
same,TGI,SK-OV-3 ovarian,> 50 µM
same,GI50,SN12C renal,14.2 µM
same,TGI,SN12C renal,> 50 µM
same,GI50,SNB-19 CNS,14.7 µM
same,TGI,SNB-19 CNS,> 50 µM
same,GI50,SNB-75 CNS,12.9 µM
same,TGI,SNB-75 CNS,29.8 µM
same,GI50,SR leukemia,1.32 µM
same,TGI,SR leukemia,22.3 µM
same,GI50,SW-620 colon,12.2 µM
same,TGI,SW-620 colon,> 50 µM
same,GI50,T-47D breast,26 µM
same,TGI,T-47D breast,> 50 µM
same,GI50,TK-10 renal,5.21 µM
same,TGI,TK-10 renal,41.7 µM
same,GI50,U251 CNS,15.7 µM
same,TGI,U251 CNS,> 50 µM
same,GI50,UACC-257 melanoma,19.9 µM
same,TGI,UACC-257 melanoma,> 50 µM
same,GI50,UACC-62 melanoma,18.1 µM
same,TGI,UACC-62 melanoma,> 50 µM
same,GI50,UO-31 renal,3.94 µM
same,TGI,UO-31 renal,> 50 µM
